Here are results for two compounds from patent publication US20250289793A1, “MACROCYCLIC INHIBITORS OF ATP CITRATE LYASE” (Esperion Therapeutics, Inc., priority 2022, published 2025).

The conditions of series [1]: from COc1c(Cl)cc(C(=O)O)cc1S(=O)(=O)Cc1cc(-c2ccccc2OCCN)c(F)cc1F; amide bond; 15-membered ring; T3P/DIPEA; DMF; 48.0 mM; 21.0 h.
The conditions of series [2]: from 3-[[5-[2-(2-aminoethoxy)phenyl]-2,4-difluoro-phenyl]sulfamoyl]-5-chloro-4-(difluoromethoxy)benzoic acid·HCl; amide bond; 15-membered ring; T3P/DIPEA; DMF; 18.1 mM.
In series [3] the target is T1, ACLY (Homo sapiens (Human), UniProt P53396). Nature of the series: Human ACLY (hACLY) RF/MS activity assay. It is filed as biochemical. Particulars: 1 nM hACLY; 30 min pre-incubation; 15 μM Coenzyme A, 50 μM ATP, 50 μM citrate; CoA to Acetyl-CoA by RF/MS; read-out: RFMS IC50 GMean. Summed up: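 Reaction buffer was 50 mM Hepes pH 8.0, 10 mM MgCl2, 0.003% BSA, 0.01% Brij35, 50 mM NaCl, 4 mM DTT, with 1 nM hACLY and 1% DMSO; compounds (two-fold series from 10 μM) were pre-incubated 30 min at RT. Reaction with 15 μM CoA, 50 μM ATP, 50 μM citrate ran 30 min, formic-acid quenched; CoA and acetyl-CoA quantified by RF/MS as ratio.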
T1 sequence (P53396 whole entry): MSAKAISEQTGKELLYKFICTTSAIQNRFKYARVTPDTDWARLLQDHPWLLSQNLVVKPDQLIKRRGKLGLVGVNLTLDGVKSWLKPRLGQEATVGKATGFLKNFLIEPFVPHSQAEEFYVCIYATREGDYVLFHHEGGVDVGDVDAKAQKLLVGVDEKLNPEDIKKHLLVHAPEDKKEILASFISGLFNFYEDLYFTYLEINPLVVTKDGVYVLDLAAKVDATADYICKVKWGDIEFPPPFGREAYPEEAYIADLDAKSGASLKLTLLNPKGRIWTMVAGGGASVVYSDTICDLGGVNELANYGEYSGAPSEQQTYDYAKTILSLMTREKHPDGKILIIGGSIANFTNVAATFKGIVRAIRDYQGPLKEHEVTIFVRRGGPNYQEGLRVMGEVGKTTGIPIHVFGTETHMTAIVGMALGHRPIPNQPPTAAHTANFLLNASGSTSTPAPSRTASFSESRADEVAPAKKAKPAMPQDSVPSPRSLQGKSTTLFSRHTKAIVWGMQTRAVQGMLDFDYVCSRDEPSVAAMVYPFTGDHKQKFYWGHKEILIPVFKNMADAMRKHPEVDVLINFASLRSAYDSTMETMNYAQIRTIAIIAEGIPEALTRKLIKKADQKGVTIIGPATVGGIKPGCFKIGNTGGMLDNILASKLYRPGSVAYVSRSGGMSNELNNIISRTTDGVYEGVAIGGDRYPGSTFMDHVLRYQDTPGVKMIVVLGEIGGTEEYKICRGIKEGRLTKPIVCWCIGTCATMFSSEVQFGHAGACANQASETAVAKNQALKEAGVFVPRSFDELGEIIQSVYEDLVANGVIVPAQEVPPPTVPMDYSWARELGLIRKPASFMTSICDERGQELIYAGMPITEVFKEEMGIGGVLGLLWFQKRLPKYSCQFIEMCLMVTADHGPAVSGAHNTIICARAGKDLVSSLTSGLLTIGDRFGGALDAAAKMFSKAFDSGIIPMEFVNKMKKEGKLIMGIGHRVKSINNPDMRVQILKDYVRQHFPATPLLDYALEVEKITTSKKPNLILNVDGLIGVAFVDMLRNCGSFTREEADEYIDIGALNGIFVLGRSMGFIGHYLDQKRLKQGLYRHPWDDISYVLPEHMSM

The target of series [4] is Recombinant human ACLY full length protein (Homo sapiens (Human), UniProt P53396). The series can be described thus: hACLY ADP-Glo activity assay. It is filed as biochemical. The conditions noted are these: 0.5 nM ACLY; 15 μM sodium citrate, 1 μM coenzyme A, 80 μM ATP; ADP formed, luminescence; read-out: ADP-Glo IC50 GMean. The method, then:
Compounds of the disclosure were evaluated for their efficacy in inhibiting hACLY using an ADP-Glo™ assays that measure ADP formed from the enzymatic activity of hACLY.
Test compounds were 3-fold serially diluted in DMSO over 11-point concentration range and dispensed onto a 384-well plate. Recombinant human ACLY full length protein was purified. Concentrations of ACLY protein, sodium citrate, coenzyme A, and ATP in the reaction were optimized for standardized homogenous enzyme assay using ADP-Glo™ Kinase (Promega Inc.). The assay measured ADP formed from the enzymatic reaction.
The reaction buffer consisted of the assay buffer (50 mM HEPES pH 8.0, 10 mM MgCl2, 4 mM 1,4-Dithiothreitol, 0.01% Brij® 35).
ACLY protein (0.5 nM) was added to the prepared reaction buffer, and the mixture was dispensed into the assay plate and incubated for 30 minutes at room temperature. Next, 15 μM sodium citrate, 1 μM coenzyme A, and 80 μM ATP were added into the assay plate and incubated for 60 minutes at room temperature. The final reaction volume for each well was 5 μL.
5 μL of ADP-Glo™ reagent was added, and the mixture was incubated for 40 minutes at room temperature. 10 μl ADP-Glo™ detection reagent was added, and the mixture was incubated for 30 minutes at room temperature. Luminescence was determined using EnVision microplate reader with ultra-luminescence module (Perkin Elmer Inc). Concentration-response curve-fitting and IC50 determination was performed using Xlfit Software (version 5.5.0) with a four-parameter logistic regression fit model.

Series [5] has as its target T1, ACLY. Nature of the series: InCell Pulse assay (permeate HEK293 cells, bind to and stabilize ACLY). Type of series: cell-based. Particulars: HEK293 cells transfected with pICP-ACLY(FL)-ePL; 1 hour at 37° C., 55° C. heat pulse 10 minutes; read-out: InCell Pulse IC50 GMean. The essentials:
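HEK293 cells transiently expressing full-length ACLY-ePL were exposed in OptiMEM to 11-point, 3-fold compound dilutions for 1 h at 37 °C, heat-pulsed 10 min at 55 °C, then lysed for enzyme-fragment complementation luminescence. Four-parameter fit, normalised to 0.5% DMSO and 1 μM NDI-094311.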

A further series deals with HepG2 cells. Nature of the series: Fatty acid synthesis (FAS) assay in HepG2 cells. It is filed as cell-based. The conditions noted are these: Homo sapiens, 1.5 h, 14C-citrate 50 μM, 90 min, read-out: FAS IC50 GMean. The method, then:
HepG2 cells were seeded into white clear-bottom 96-well plates (50,000/well) coated with collagen and incubated at 37° C. for 16-24 hours. Thereafter the plates were washed once with 100 μL PBS (+CaCl2+MgCl2) and 50 μL assay medium ([…] containing 11 mM glucose, 10 mM HEPES and 1 nM Insulin) per well was added. Test substances in assay medium were added (10 μL, 0.5% DMSO) and incubated for 20 min at 37° C. After that 10 μL assay medium containing ^14C-citrate (final concentration 50 μM) and PrestoBlue reagent (lx final concentration; ThermoFisher) were added and incubated for 90 min (37° C., 5% CO2). Cell viability was measured (Multiskan FC, microplate reader, absorbance 570 nm). Medium was removed by inverting the plate and cells were washed once with 100 μL ice-cold PBS. Cells were lysed with 50 μL lysis buffer (0.1 N NaOH, 0.1% Triton X-100) and plate was sealed with Tape Pads and vortexed. For the saponification reaction plates were incubated for 16-24 hours at 80° C. Seals were removed and 200 μL 0.1 N HCl was added for neutralisation of the pH. 150 μL from each well was transferred into the corresponding wells of a 96-well Flash plate (Perkin Elmer) and sealed with TopSeal A (Perkin Elmer). Plates were incubated for 4 h at 70° C., and for 1 h at room temperature in the dark. Signal of ^14C radioactivity was measured (TopCount). As a positive control 5 mM unlabelled citrate or C75 (Sigma, C5490) was applied.

Each structure is given as a SMILES string.

Recombinant human ACLY full length protein, sequence (P53396 whole entry): as above

Turning to `COc1c(Cl)cc2cc1S(=O)(=O)Cc1cc(c(F)cc1F)-c1ccccc1OCCNC2=O`, the ring closure, crude yield in series [1] is 81%.

Consider `O=C1NCCOc2ccccc2-c2cc(c(F)cc2F)NS(=O)(=O)c2cc1cc(Cl)c2OC(F)F` [Compound 15, 15-chloro-16-(difluoromethoxy)-21,23-difluoro-8-oxa-18lambda6-thia-11,19-diazatetracyclo[18.3.1.1^13,17.0^2,7]pentacosa-1(24),2,4,6,13,15,17(25),20,22-nonaene-12,18,18-trione], for which the ring closure, yield after HPLC in series [2] amounted to 48%. For the same compound, the IC50 is no less than 10 µM at ACLY [3], no less than 1 µM in series [4], no less than 50 µM on ACLY [5] and 2 to 10 µM in the series with HepG2 cells.

The term IC50 denotes the concentration that inhibits the measured activity by half.
